# Measurements as given in patent US20140213513A1 (Sanofi, priority 2012, published 2014).
# *1 amine or outer side, *2 acyl side, *3 side chain or, on linkers, in order; H or OH if unused. Where a SMILES comes first, the peptide text is derived from it. Side-chain parts run from the residue outwards. [ ]: non-standard residue; d: D form. The star is where a group is joined. γGlu = O=C(O)[C@H](CCC(=O)[*:2])N[*:1]; Stearoyl = CCCCCCCCCCCCCCCCCC(=O)*; Palmitoyl = CCCCCCCCCCCCCCCC(=O)*; Aib = CC(C)(N)C(=O)O
# Assays:
# Format in all cases: cell-based
# Details in all cases: Table 7; cAMP formation
# [1] = molecular target: T1, human GLP-1 receptor (hGLP-1 R) (Homo sapiens, UniProt P43220); assay: cAMP response of HEK-293 cells stably expressing human GLP-1 receptor (HTRF)
# T1 construct: expressed in transfected cells
# T1 sequence (P43220 24-463): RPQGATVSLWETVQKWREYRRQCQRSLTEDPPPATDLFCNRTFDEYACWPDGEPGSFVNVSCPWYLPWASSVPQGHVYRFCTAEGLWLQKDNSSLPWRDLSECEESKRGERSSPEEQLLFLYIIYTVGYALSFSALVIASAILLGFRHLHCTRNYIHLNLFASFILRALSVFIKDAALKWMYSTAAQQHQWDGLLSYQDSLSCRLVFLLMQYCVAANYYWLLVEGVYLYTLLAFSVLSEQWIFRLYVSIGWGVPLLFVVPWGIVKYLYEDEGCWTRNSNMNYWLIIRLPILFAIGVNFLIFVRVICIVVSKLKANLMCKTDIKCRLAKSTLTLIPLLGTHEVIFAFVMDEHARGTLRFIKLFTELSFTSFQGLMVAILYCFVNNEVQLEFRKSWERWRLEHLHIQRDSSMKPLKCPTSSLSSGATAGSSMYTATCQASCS
# Method: (§1) cAMP content of cells was determined using a kit from Cisbio Corp. (cat. no. 62AM4PEC) based on HTRF (Homogenous Time Resolved Fluorescence). For preparation, cells were split into T175 culture flasks and grown overnight to near confluency in medium (DMEM/10% FBS). Medium was then removed and cells washed with PBS lacking calcium and magnesium, followed by proteinase treatment with accutase (Sigma-Aldrich cat. no. A6964). Detached cells were washed and resuspended in assay buffer (1×HBSS; 20 mM HEPES, 0.1% BSA, 2 mM IBMX) and cellular density determined. They were then diluted to 400000 cells/ml and 25 μl-aliquots dispensed into the wells of 96-well plates. For measurement, 25 μl of test compound in assay buffer was added to the wells, followed by incubation for 30 minutes at room temperature.
# [2] = molecular target: T2, human GIP receptor (hGIP R) (Homo sapiens, UniProt P48546); assay: cAMP response of HEK-293 cells stably expressing human GIP receptor (HTRF)
# T2 construct: expressed in transfected cells
# T2 sequence (P48546 22-466): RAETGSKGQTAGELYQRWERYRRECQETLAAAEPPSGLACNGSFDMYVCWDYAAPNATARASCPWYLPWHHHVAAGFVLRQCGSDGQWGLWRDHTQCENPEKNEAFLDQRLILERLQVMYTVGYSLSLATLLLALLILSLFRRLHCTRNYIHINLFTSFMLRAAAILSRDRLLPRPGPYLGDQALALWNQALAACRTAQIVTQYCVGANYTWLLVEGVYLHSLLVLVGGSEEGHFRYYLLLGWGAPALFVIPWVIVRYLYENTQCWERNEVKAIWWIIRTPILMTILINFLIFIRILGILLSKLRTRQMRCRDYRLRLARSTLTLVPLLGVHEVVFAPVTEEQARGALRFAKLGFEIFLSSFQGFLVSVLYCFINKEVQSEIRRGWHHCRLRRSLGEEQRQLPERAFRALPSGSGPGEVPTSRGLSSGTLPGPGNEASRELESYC
# Method: as §1
# [3] = molecular target: T3, human glucagon receptor (hGLUC R) (Homo sapiens, UniProt P47871); assay: cAMP response of HEK-293 cells stably expressing human glucagon receptor (HTRF)
# T3 construct: expressed in transfected cells
# T3 sequence (P47871 26-477): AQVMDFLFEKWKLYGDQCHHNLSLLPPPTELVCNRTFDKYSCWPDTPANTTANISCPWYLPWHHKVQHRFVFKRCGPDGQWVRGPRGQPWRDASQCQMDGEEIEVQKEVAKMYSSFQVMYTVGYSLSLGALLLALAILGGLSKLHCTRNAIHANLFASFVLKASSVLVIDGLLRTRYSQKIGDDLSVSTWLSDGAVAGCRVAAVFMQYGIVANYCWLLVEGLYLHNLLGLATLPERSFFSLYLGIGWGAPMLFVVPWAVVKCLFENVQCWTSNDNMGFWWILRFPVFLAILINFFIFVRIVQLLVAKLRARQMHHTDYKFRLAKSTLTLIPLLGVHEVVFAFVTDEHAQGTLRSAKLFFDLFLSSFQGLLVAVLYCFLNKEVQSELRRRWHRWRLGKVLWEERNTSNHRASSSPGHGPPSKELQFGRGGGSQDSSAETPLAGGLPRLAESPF
# Method: as §1
SMILES,EC50 [1],EC50 [2],EC50 [3]
"CCCCCCCCCCCCCCCC(=O)N[C@@H](CCC(=O)NCCCC[C@H](NC(=O)[C@H](CCC(N)=O)NC(=O)[C@H](CCCCN)NC(=O)[C@H](CO)NC(=O)[C@H](CC(C)C)NC(=O)[C@H](CC(=O)O)NC(=O)[C@H](CO)NC(=O)[C@@H](NC(=O)[C@H](Cc1ccccc1)NC(=O)[C@@H](NC(=O)CNC(=O)[C@H](CCC(N)=O)NC(=O)C(C)(C)NC(=O)[C@@H](N)Cc1ccc(O)cc1)[C@@H](C)O)[C@@H](C)O)C(=O)N[C@@H](CCC(=O)O)C(=O)N[C@@H](CO)C(=O)N[C@@H](CCCCN)C(=O)N[C@@H](C)C(=O)N[C@@H](C)C(=O)N[C@@H](CCC(N)=O)C(=O)N[C@@H](CC(=O)O)C(=O)N[C@@H](Cc1ccccc1)C(=O)N[C@H](C(=O)N[C@@H](CCC(=O)O)C(=O)N[C@@H](Cc1c[nH]c2ccccc12)C(=O)N[C@@H](CC(C)C)C(=O)N[C@@H](CCCCN)C(=O)N[C@@H](C)C(=O)NCC(=O)NCC(=O)N1CCC[C@H]1C(=O)N[C@@H](CO)C(=O)N[C@@H](CO)C(=O)NCC(=O)N[C@@H](C)C(=O)N1CCC[C@H]1C(=O)N1CCC[C@H]1C(=O)N1CCC[C@H]1C(=O)N[C@@H](CO)C(N)=O)[C@@H](C)CC)C(=O)O [SEQ ID NO: 39, Y-Aib-Q-G-T-F-T-S-D-L-S-K-Q-K(yE-x53)-ESKAAQDFIEWLKAGGPSSGAPPPS-NH2] (H-Y[Aib]QGTFTSDLSKQK([γGlu-Palmitoyl])ESKAAQDFIEWLKAGGPSSGAPPPS-NH2)",4.5 pM,0.0385 nM,0.0192 nM
"CCCCCCCCCCCCCCCC(=O)N[C@@H](CCC(=O)NCCCC[C@H](NC(=O)[C@H](CCC(N)=O)NC(=O)[C@@H](NC(=O)[C@H](CO)NC(=O)[C@H](CC(C)C)NC(=O)[C@H](CC(=O)O)NC(=O)[C@H](CO)NC(=O)[C@@H](NC(=O)[C@H](Cc1ccccc1)NC(=O)[C@@H](NC(=O)CNC(=O)[C@H](CCC(N)=O)NC(=O)C(C)(C)NC(=O)[C@@H](N)Cc1ccc(O)cc1)[C@@H](C)O)[C@@H](C)O)[C@@H](C)CC)C(=O)N[C@@H](CCC(=O)O)C(=O)N[C@@H](CCCCN)C(=O)N[C@@H](CCCNC(=N)N)C(=O)NC(C)(C)C(=O)N[C@@H](C)C(=O)NC(C)(C)C(=O)N[C@@H](CCC(=O)O)C(=O)N[C@@H](Cc1ccccc1)C(=O)N[C@H](C(=O)N[C@@H](CCC(=O)O)C(=O)N[C@@H](Cc1c[nH]c2ccccc12)C(=O)N[C@@H](CC(C)C)C(=O)N[C@@H](CCCCN)C(=O)N[C@@H](CC(N)=O)C(=O)N[C@H](C(=O)NCC(=O)N1CCC[C@H]1C(=O)N[C@@H](CO)C(=O)N[C@@H](CO)C(=O)NCC(=O)N[C@@H](C)C(=O)N1CCC[C@H]1C(=O)N1CCC[C@H]1C(=O)N1CCC[C@H]1C(=O)N[C@@H](CO)C(N)=O)[C@@H](C)O)[C@@H](C)CC)C(=O)O [SEQ ID NO: 11, Y-Aib-Q-G-T-F-T-S-D-L-S-I-Q-K(yE-x53)-E-K-R-Aib-A-Aib-E-F-I-E-W-L-K-N-T-G-P-S-S-G-A-P-P-P-S-NH2] (H-Y[Aib]QGTFTSDLSIQK([γGlu-Palmitoyl])EKR[Aib]A[Aib]EFIEWLKNTGPSSGAPPPS-NH2)",3.8 pM,0.0144 nM,0.0669 nM
"CCCCCCCCCCCCCCCC(=O)N[C@@H](CCC(=O)NCCCC[C@H](NC(=O)[C@H](CCC(N)=O)NC(=O)[C@@H](NC(=O)[C@H](CO)NC(=O)[C@H](CC(C)C)NC(=O)[C@H](CC(=O)O)NC(=O)[C@H](CO)NC(=O)[C@@H](NC(=O)[C@H](Cc1ccccc1)NC(=O)[C@@H](NC(=O)CNC(=O)[C@H](CCC(N)=O)NC(=O)C(C)(C)NC(=O)[C@@H](N)Cc1ccc(O)cc1)[C@@H](C)O)[C@@H](C)O)[C@@H](C)CC)C(=O)N[C@@H](CCC(=O)O)C(=O)N[C@@H](CCCCN)C(=O)NC(C)(C)C(=O)N[C@@H](C)C(=O)N[C@@H](C)C(=O)NC(C)(C)C(=O)N[C@@H](CCC(=O)O)C(=O)N[C@@H](Cc1ccccc1)C(=O)N[C@H](C(=O)N[C@@H](CCC(=O)O)C(=O)N[C@@H](Cc1c[nH]c2ccccc12)C(=O)N[C@@H](CC(C)C)C(=O)N[C@@H](CCCCN)C(=O)N[C@@H](CC(N)=O)C(=O)N[C@H](C(=O)NCC(=O)N1CCC[C@H]1C(=O)N[C@@H](CO)C(=O)N[C@@H](CO)C(=O)NCC(=O)N[C@@H](C)C(=O)N1CCC[C@H]1C(=O)N1CCC[C@H]1C(=O)N1CCC[C@H]1C(=O)N[C@@H](CO)C(N)=O)[C@@H](C)O)[C@@H](C)CC)C(=O)O [SEQ ID NO: 9, Y-Aib-Q-G-T-F-T-S-D-L-S-I-Q-K(yE-x53)-E-K-Aib-A-A-Aib-E-F-I-E-W-L-K-N-T-G-P-S-S-G-A-P-P-P-S-NH2] (H-Y[Aib]QGTFTSDLSIQK([γGlu-Palmitoyl])EK[Aib]AA[Aib]EFIEWLKNTGPSSGAPPPS-NH2)",5.5 pM,0.009 nM,0.445 nM
"CCCCCCCCCCCCCCCCCC(=O)N[C@@H](CCC(=O)NCCCC[C@H](NC(=O)[C@H](CCC(N)=O)NC(=O)[C@@H](NC(=O)[C@H](CO)NC(=O)[C@H](CC(C)C)NC(=O)[C@H](CC(=O)O)NC(=O)[C@H](CO)NC(=O)[C@@H](NC(=O)[C@H](Cc1ccccc1)NC(=O)[C@@H](NC(=O)CNC(=O)[C@H](CCC(=O)O)NC(=O)C(C)(C)NC(=O)[C@@H](N)Cc1ccc(O)cc1)[C@@H](C)O)[C@@H](C)O)[C@@H](C)CC)C(=O)N[C@@H](CCC(=O)O)C(=O)N[C@@H](CO)C(=O)N[C@@H](CCCCN)C(=O)N[C@@H](C)C(=O)N[C@@H](C)C(=O)NC(C)(C)C(=O)N[C@@H](CCC(=O)O)C(=O)N[C@@H](Cc1ccccc1)C(=O)N[C@H](C(=O)N[C@@H](CCC(=O)O)C(=O)N[C@@H](Cc1c[nH]c2ccccc12)C(=O)N[C@@H](CC(C)C)C(=O)N[C@@H](CCCCN)C(=O)N[C@@H](C)C(=O)NCC(=O)NCC(=O)N1CCC[C@H]1C(=O)N[C@@H](CO)C(=O)N[C@@H](CO)C(=O)NCC(=O)N[C@@H](C)C(=O)N1CCC[C@H]1C(=O)N1CCC[C@H]1C(=O)N1CCC[C@H]1C(=O)N[C@@H](CO)C(=O)N[C@@H](CCCCN)C(N)=O)[C@@H](C)CC)C(=O)O [SEQ ID NO: 16, Y-Aib-E-G-T-F-T-S-D-L-S-I-Q-K(yE-x70)-E-S-K-A-A-Aib-EFIEWLKAGGPSSGAPPPSK-NH2] (H-Y[Aib]EGTFTSDLSIQK([γGlu-Stearoyl])ESKAA[Aib]EFIEWLKAGGPSSGAPPPSK-NH2)",7 pM,0.0156 nM,17 nM
"CCCCCCCCCCCCCCCC(=O)N[C@@H](CCC(=O)NCCCC[C@H](NC(=O)[C@H](CCC(N)=O)NC(=O)[C@@H](NC(=O)[C@H](CO)NC(=O)[C@H](CC(C)C)NC(=O)[C@H](CC(=O)O)NC(=O)[C@H](CO)NC(=O)[C@@H](NC(=O)[C@H](Cc1ccccc1)NC(=O)[C@@H](NC(=O)CNC(=O)[C@H](CCC(N)=O)NC(=O)C(C)(C)NC(=O)[C@@H](N)Cc1ccc(O)cc1)[C@@H](C)O)[C@@H](C)O)[C@@H](C)CC)C(=O)N[C@@H](CCC(=O)O)C(=O)N[C@@H](CCCCN)C(=O)N[C@@H](CCCNC(=N)N)C(=O)N[C@@H](C)C(=O)NC(C)(C)C(=O)NC(C)(C)C(=O)N[C@@H](CCC(=O)O)C(=O)N[C@@H](Cc1ccccc1)C(=O)N[C@H](C(=O)N[C@@H](CCC(=O)O)C(=O)N[C@@H](Cc1c[nH]c2ccccc12)C(=O)N[C@@H](CC(C)C)C(=O)N[C@@H](CCCCN)C(=O)N[C@@H](CC(N)=O)C(=O)N[C@H](C(=O)NCC(=O)N1CCC[C@H]1C(=O)N[C@@H](CO)C(=O)N[C@@H](CO)C(=O)NCC(=O)N[C@@H](C)C(=O)N1CCC[C@H]1C(=O)N1CCC[C@H]1C(=O)N1CCC[C@H]1C(=O)N[C@@H](CO)C(N)=O)[C@@H](C)O)[C@@H](C)CC)C(=O)O [SEQ ID NO: 22, Y-Aib-Q-G-T-F-T-S-D-L-S-I-Q-K(yE-x53)-E-K-R-A-Aib-Aib-E-F-I-E-W-L-K-N-T-G-P-S-S-G-A-P-P-P-S-NH2] (H-Y[Aib]QGTFTSDLSIQK([γGlu-Palmitoyl])EKRA[Aib][Aib]EFIEWLKNTGPSSGAPPPS-NH2)",8.5 pM,0.102 nM,2.21 nM
